Key:
[1] = Wistar rat feeding study: plasma glucose, cholesterol, triglyceride, insulin resistance; assay type: in vivo, Wistar rats
Text: (§1) The rats were housed as pairs for five weeks prior to being placed in individual metabolic cages for the sixth week of the study. All of the rats' feces were collected during the final three days of the study. At the end of the sixth week of the study period the rats were sacrificed by decapitation after a brief exposure to carbon dioxide gas. Trunk blood and the livers were collected from each animal. The rest of the body was eviscerated and all visible fat from the internal cavity was collected and weighed. The carcass was frozen for body composition analysis at a later date.
The plasma glucose, cholesterol and triglyceride concentrations were measured on all of the sacrificed animals using standard clinical laboratory techniques as may be found in Tietz Textbook of Clinical Chemistry, second edition. Burtis C A and Ashwood E R eds., W.B. Saunders Company A Division of Harcourt Brace & Company, 1994, Philadelphia incorporated herein by reference. (FIG. 5). On average the α-cyclodextrin appeared to have decreased the plasma total cholesterol levels by about 10%. This decrease was not statistically significant over this short study period; we expect that with longer feeding period, cholesterol levels will continue to decline. […] LDL cholesterol levels on all of the animals were too low to measure reliably since in rats the majority of the cholesterol is carried in the HDL-cholesterol fraction, and very little is carried in the LDL-cholesterol fraction.
Increased insulin resistance, elevated blood triglycerides and reduced HDL cholesterol levels are all the risk factors of Syndrome X. Insulin/glucose ratios as well as triglyceride/HDL ratios were calculated to provide indications about insulin resistance and risk of Syndrome X. (Szejtli J. Mater. Chem. 1997; 7:575-587 incorporated herein by reference). […] The reduction in triglyceride/HDL cholesterol ratios by α-cyclodextrin indicated a significant decrease in the risk for Syndrome X.

[2] = Wistar rat feeding study: fecal fat content (total lipid of feces); assay type: in vivo, Wistar rats; details: collected feces, final three days
Text: as §1
Total lipid determinations were performed on the collected feces using standard techniques Folch et al. J Biol. Chem 226: 497-509 (1957) incorporated by reference. […] On average this increase was approximately 25%. […] The latter observation was confirmed by visual inspection of the feces.

[3] = volunteers fed high fat breakfast: serum triglyceride levels; assay type: in vivo, human
Description: To determine the effect of α-cyclodextrin on triglyceride levels, eight volunteers were fed on two consecutive days a two-egg cheese (54 g) omelet and a milkshake containing a total of 47 g of fat after an overnight fast. On the first day the meal also contained approximately 5 g of α-cyclodextrin. Blood samples (10 ml) from each volunteer taken via an in-dwelling venous catheter immediately prior the meal (zero-time) and at 1, 2 and 3 hours after the meal was consumed and were assayed for serum triglyceride levels. The zero-time sample were used as the baseline to calculate the percentage change in blood serum triglyceride levels of the human volunteers at one, two and three hours. FIG. 7 illustrates the data collected from the volunteers.
FIG. 7 also contains data from three of the volunteers who had partaken in an earlier two-hour study with a smaller meal (denoted “*”).

[4] = cited from earlier work
insulin and leptin = assay: two additional volunteers: body weight, insulin and leptin levels (radioimmune assays); assay type: in vivo, human
Text: Blood samples were taken from the two additional subjects in Example 3 at various timepoints and assayed for insulin levels and leptin levels by the method of Linco Research (St. Charles, Mo.) using human insulin and leptin radioimmune assays.

[5] = two additional volunteers, about 2 g α-cyclodextrin per meal: cholesterol, LDL, cholesterol/HDL, triglycerides; assay type: in vivo, human
Description: α-cyclodextrin was also added to the diet of two additional volunteers. The α-cyclodextrin was added in a proportion such that each meal comprised about 2 g of α-cyclodextrin. Table 3 sets forth the effects of the α-cyclodextrin on reducing the levels of cholesterol, LDL, cholesterol/HDL ratio and serum triglycerides. It is of note that both of these volunteers, as well as the initial volunteer, had been and still were taking one of the statin pharmaceuticals for lowering their blood serum cholesterol. All three volunteers were taking different statins. In addition volunteer one was taking 3 g/d niacin which they reduced by 50% in the first two weeks of the study because of the unpleasant side effects of this medication.

[6] = volunteer one, 2.5 months, on statin and niacin
[7] = volunteer two, 6 months, on statin

**Q.** With `OC[C@H]1O[C@@H]2O[C@H]3[C@H](O)[C@@H](O)[C@@H](O[C@H]4[C@H](O)[C@@H](O)[C@@H](O[C@H]5[C@H](O)[C@@H](O)[C@@H](O[C@H]6[C@H](O)[C@@H](O)[C@@H](O[C@H]7[C@H](O)[C@@H](O)[C@@H](O[C@H]1[C@H](O)[C@H]2O)O[C@@H]7CO)O[C@@H]6CO)O[C@@H]5CO)O[C@@H]4CO)O[C@@H]3CO` [α-cyclodextrin] as the compound, how does the triglyceride/HDL cholesterol ratios ([1]; 6 week study) read?
**A.** The triglyceride/HDL cholesterol ratios was “reduction”.

**Q.** And the “decrease of HDL cholesterol” value ([1]; at sacrifice)?
**A.** Its value is 6-8%.

**Q.** What about the plasma glucose levels ([1]; at sacrifice) of the same compound?
**A.** The plasma glucose levels was “not affected significantly”.

**Q.** What about the “reduction of plasma triglyceride levels” value ([1]; at sacrifice, p<0.05) of the same compound?
**A.** Its value is “about 30%”.

**Q.** What about the “decrease of plasma total cholesterol” value ([1]; on average, at sacrifice, not statistically significant) of the same compound?
**A.** The value was “about 10%”.

**Q.** And the “visual inspection of feces” value [2]?
**A.** The value was “no indication of diarrhea”.

**Q.** And the “increase in serum triglyceride levels after meal” value ([3]; eight volunteers, meal with 47 g fat and approximately 5 g α-cyclodextrin, 1, 2 and 3 hours, p<0.08)?
**A.** The value was “less”.

**Q.** And the “change in triglyceride levels after meal” value ([3]; three volunteers, earlier two-hour study with smaller meal)?
**A.** The value was “less”.

**Q.** And the “weight gain of rats versus control diet” value ([4]; JP 05-298849, diet with 16% a-cyclodextrin, or 1% linolenic acid, or 14% α-cyclodextrin and 2% linolenic acid)?
**A.** Its value is “gain weight approximately the same as rats fed a control diet”.

**Q.** And the “body weight gain of rats versus control diets” value ([4]; Kaewprasert et al. 2001, 5% α-cyclodextrin diet, cyclodextrin:fat about 1:1.4)?
**A.** Its value is “not significantly different”.

**Q.** What about the “weight gain of rats” value ([4]; S60-149752, diet with 14% w/w α-cyclodextrin, or 14% w/w α-cyclodextrin and 0.5% w/w linolenic acid) of the same compound?
**A.** The value was “little effect on weight gain”.

**Q.** And the Leptin (insulin and leptin; Subject 1, 55 days on diet, day 0: 3.6)?
**A.** The Leptin was 2.9 ng/mL.

**Q.** What about the Insulin (insulin and leptin; Subject 1, 55 days on diet, day 0: 14) of the same compound?
**A.** Its Insulin is 13 uU/ml.

**Q.** What about the Body weight (insulin and leptin; Subject 1, 55 days on diet, day 0: 89.09) of the same compound?
**A.** Its Body weight is 85.45 kg.

**Q.** And the Body weight (insulin and leptin; Subject 1, 55 days on diet, day 0: 196)?
**A.** The Body weight was 188 lb.

**Q.** What about the Leptin (insulin and leptin; Subject 1, 112 days on diet, day 0: 3.6) of the same compound?
**A.** The Leptin was 1.6 ng/mL.

**Q.** And the Insulin (insulin and leptin; Subject 1, 112 days on diet, day 0: 14)?
**A.** Its Insulin is 8 uU/ml.

**Q.** And the Body weight (insulin and leptin; Subject 1, 112 days on diet, day 0: 89.09)?
**A.** Its Body weight is 81.82 kg.

**Q.** And the Body weight (insulin and leptin; Subject 1, 112 days on diet, day 0: 196)?
**A.** The Body weight was 180 lb.

**Q.** What about the “Body weight % decrease” value (insulin and leptin; Subject 1, day 0 to day 112) of the same compound?
**A.** Its value is 5.0%.

**Q.** What about the Insulin % decrease (insulin and leptin; Subject 1, day 0 to day 112) of the same compound?
**A.** The Insulin % decrease was 42.9%.

**Q.** What about the Leptin % decrease (insulin and leptin; Subject 1, day 0 to day 112) of the same compound?
**A.** The Leptin % decrease was 55.6%.

**Q.** And the Leptin (insulin and leptin; Subject 2, 28 days on diet, day 0: 6.1)?
**A.** The Leptin was 6.0 ng/mL.

**Q.** What about the Insulin (insulin and leptin; Subject 2, 28 days on diet, day 0: 26) of the same compound?
**A.** Its Insulin is 28 uU/ml.

**Q.** And the Body weight (insulin and leptin; Subject 2, 28 days on diet, day 0: 105.45)?
**A.** Its Body weight is 104.55 kg.

**Q.** What about the Body weight (insulin and leptin; Subject 2, 28 days on diet, day 0: 232) of the same compound?
**A.** Its Body weight is 230 lb.

**Q.** And the Leptin (insulin and leptin; Subject 2, 62 days on diet, day 0: 6.1)?
**A.** The Leptin was 3.9 ng/mL.

**Q.** What about the Insulin (insulin and leptin; Subject 2, 62 days on diet, day 0: 26) of the same compound?
**A.** Its Insulin is 16 uU/ml.

**Q.** What about the Body weight (insulin and leptin; Subject 2, 62 days on diet, day 0: 105.45) of the same compound?
**A.** The Body weight was 100.23 kg.

**Q.** What about the Body weight (insulin and leptin; Subject 2, 62 days on diet, day 0: 232) of the same compound?
**A.** The Body weight was 220.5 lb.

**Q.** And the “Body weight % decrease” value (insulin and leptin; Subject 2, day 0 to day 62)?
**A.** Its value is 5.0%.

**Q.** And the Insulin % decrease (insulin and leptin; Subject 2, day 0 to day 62)?
**A.** Its Insulin % decrease is 38.5%.

**Q.** What about the Leptin % decrease (insulin and leptin; Subject 2, day 0 to day 62) of the same compound?
**A.** Its Leptin % decrease is 36%.

**Q.** What about the “Cholesterol (change)” value [5, 6] of the same compound?
**A.** The value was −18.5%.

**Q.** What about the “Cholesterol/HDL (change)” value [5, 6] of the same compound?
**A.** Its value is −16.1%.

**Q.** And the “LDL (change)” value [5, 6]?
**A.** Its value is −25.6%.

**Q.** And the “TG (change)” value [5, 6]?
**A.** Its value is −22.2%.

**Q.** And the “Cholesterol (change)” value [5, 7]?
**A.** The value was −10.2%.

**Q.** And the “Cholesterol/HDL (change)” value [5, 7]?
**A.** Its value is −8.8%.

**Q.** And the “LDL (change)” value [5, 7]?
**A.** The value was −15.0.

**Q.** What about the “TG (change)” value [5, 7] of the same compound?
**A.** The value was −37.5%.

— patent US9326539B2, “Compositions comprising dietary fat complexers and methods for their use” (Soho Flordis International Pty. Ltd., priority 2002, dated 2016)
